Test results as given in PMC7041945, “Misfolded proteins bind and activate death receptor 5 to trigger apoptosis during unresolved endoplasmic reticulum stress” (eLife, 2020).
Residues, ends and D or L forms follow the SMILES beside them. No end group written: not given here. *: point of attachment. Cbz = O=C(OCc1ccccc1)*; CH2F = FC*

What was measured:
[1] = system: caspase 8 in HCT116 lysates; assay: Caspase 8 activity (caspase glo 8) of cell lysates / IP inputs; assay type: cell-based, Homo sapiens; conditions: for norm RLUs: rep 2, normalized by lysate quant; for average fold change relative to empty: HCT116, rep 1, average of 4 dilutions
Procedure: Cells harvested from a 6-well plate were resuspended in 100 μl of lysis buffer (30 mM HEPES pH 7.2, 150 mM NaCl, 1% Triton X-100) and lysed via needle shearing (25G, 10 passes) followed by a 30 min incubation on ice. Supernatant was collected after centrifuging at 1000xg for 5 min. For the caspase activity assay, 10 μl of supernatant diluted with lysis buffer (1:25, 1:50, 1:100 to stay within linear range of luminescence measurements) was incubated with 10 μl of the luminogenic caspase glo 8 substrate (Promega #PRG8200) in a 384-white walled plate (Corning 3574) for 45 min at RT before measuring luminescence on a Spectramax-M5 plate reader.

[2] = system: HCT116 cells; assay: Annexin V (and SytoxBlue) flow cytometry for apoptosis; assay type: cell-based, Homo sapiens; conditions: for Annexin V +, Sytox Blue + cells / Annexin V +, Sytox Blue - cells / Annexin V -, Sytox Blue - cells: transfected 24 hr, no z-VAD
Procedure: Cells seeded in a 6-well plate were transfected with the specified plasmid for 24 hr and harvested via trypsinization in complete media to allow a 30 min recovery at 37°C. The samples were then centrifuged at 500xg for 5 min and resuspended In 150 μl of a 1:20 dilution of Annexin V-AlexaFluor 647 conjugate (Thermo Scientific #A23204). Samples were transferred to a 96-well U-bottom plate and incubated in the dark for 15 min at RT. The distribution of apoptotic cells was determined by flow cytometry on a BD LSR II.

[3] = target: T1, DR5L ECD (Homo sapiens, UniProt O14763); assay: Size exclusion chromatography of DR5 ECD and peptide complex; assay type: biochemical; conditions: 25 μM DR5L ECD; 100 μM fluorescein-conjugated peptide; overnight 4°C
T1 construct: Gp67 (glycoprotein) signal peptide (N); made in house; host or cells: SF21 insect cells (baculovirus, Bac-to-Bac)
T1 sequence (O14763 72-213): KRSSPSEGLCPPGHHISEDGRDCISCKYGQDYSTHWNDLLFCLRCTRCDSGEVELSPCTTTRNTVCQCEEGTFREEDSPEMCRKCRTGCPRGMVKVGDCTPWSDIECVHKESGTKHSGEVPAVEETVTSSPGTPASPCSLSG
Procedure: The specified concentration of protein and peptide were incubated overnight at 4°C. The following day, 200 ul of each sample was loaded onto a SuperDex200 10/300 GL column equilibrated with 30 mM HEPES pH 7.2, 150 mM NaCl at a flow rate of 0.5 ml/min. Fractions were collected in 1 ml aliquots.
For subsequent analysis of each fraction by SDS-PAGE, 1 ml fractions were concentrated to 50 μl using a 3 kDa MW cutoff and loaded onto a gel. The fluorescein-labeled peptide was visualized using the fluorescence detection mode on a Typhoon 9400 Variable Mode Imager (GE Healthcare). Protein was visualized by staining with Coomassie.

[4] = target: T1, DR5L ECD; assay: Fluorescence quenching of AlexaFluor647-DR5L ECD; assay type: binding
Procedure: The pFastBac HTB constructs were recombined into bacmid DNA using the Bac-to-Bac baculovirus expression system according to manufacturer’s protocols (Life Technologies).
Recombinant DR5 and TNFR1 ECD were labeled with AlexaFluor647 NHS Ester (Succinimidyl Ester) (Life Technologies # A37573) in a 3:1 dye:protein molar ratio in 30 mM HEPES pH 7.2, 150 mM NaCl, 1% DMF overnight at 4°C protected from light. The labeled proteins were re-loaded onto a SuperDex200 10/300 GL column to remove the excess dye, yielding labeling efficiencies of 59% and 49% for DR5 ECD and TNFR1 ECD, respectively. […]
To set up reactions, the unlabeled peptide titration (10 μl each) was made from a two-fold dilution series of the highest peptide concentration assayed. […] Samples were incubated for 30 min at RT protected from light before measuring fluorescence.
Samples were then loaded by capillary action onto premium capillaries (Nanotemper Technologies, cat. #MO-K025). Fluorescence was measured on a Monolith NT.115 Instrument (NanoTemper Technologies, Germany) using the capillary scan function at 25°C.
The half-maximum binding constant (K1/2) and Hill coefficient were determined by fitting the data points on Prism 6.0 to the model equation: Y = Bmax*X^h/(K1/2^h + X^h), where Y is the % quenching, X is the concentration of peptide, Bmax is the maximum % quenching, and h is the Hill slope.

[5] = system: DR5 / ERGIC53 / giantin in HCT116 cells; assay: Immunofluorescence co-localization (Pearson's correlation per cell); assay type: cell-based, Homo sapiens; conditions: for Pearson's correlation per cell of GFP-tagged peptide with DR5 / Pearson's correlation per cell of GFP-tagged peptide with ERGIC: HCT116, 24 hr post-transfection; for Pearson's correlation per cell of GFP-tagged peptide with DR5 / Pearson's correlation per cell of GFP-tagged peptide with ERGIC / Pearson's correlation per cell between DR5 and ERGIC: Mean ± SEM; for Pearson's correlation per cell between DR5 and ERGIC: HCT116 expressing GFP-tagged peptide, 24 hr
Procedure: HCT116 were seeded at 25000 cells per well in an 8-well glass-bottom μSlide (Ibidi 80827) pre-coated with Collagen IV (Sigma-Aldrich C6745, 0.03 mg/ml in PBS incubated for 30 min at RT, and then rinsed off with PBS x 3) in growth media 18 hr prior to transfection (see above for protocol). 24 hr post-transfection, the cells were fixed using 4% paraformaldehyde (PFA, Electron Microscopy Sciences) or methanol, depending on the antibody combination used for immunostaining (see table below). Samples were protected from light after fixation to preserve GFP fluorescence.
For fixation with 4% PFA, 32% PFA was added directly to the well in growth media for a 1:8 dilution and incubated for 10–15 min at RT. Cells were then permeabilized with PHEM buffer (60 mM PIPES, 25 mM HEPES, 10 mM EGTA, 2 mM MgCl2-hexahydrate, pH 6.9) containing 0.1% Triton-X100 for 10 min at RT for three washes.
For fixation with methanol, media was removed and cells were washed with cold PBS. Then methanol (pre-cooled at −20°C) was added to the well and incubated at −20°C for 3–4 min. The methanol was promptly aspirated and replaced with PHEM buffer (without Triton X-100), followed by two more 10 min washes with PHEM at RT.
To block against non-specific antibody interactions, cells were rinsed in PHEM (without 0.1% Triton X-100) and then incubated with PHEM containing 2% normal goat serum (Jackson Immunoresearch Laboratories, 005-000-121) for 1 hr at RT. Primary antibodies were incubated in blocking solution overnight at 4°C at the dilution noted in the table above. Cells were then washed with PHEM buffer for 10 min at RT x three and incubated with secondary antibodies, anti-mouse-AlexaFluor546 (Invitrogen A11030) and anti-rabbit-AlexaFluor633 (Invitrogen A21071), diluted 1:1000 in PHEM with 2% normal goat serum. (Secondary antibody solutions were centrifuged at 15000xg for 20 mins at 4°C to remove aggregates prior to incubating with cell samples.) After a 1 hr incubation at RT, cells were washed with PHEM buffer once, then incubated with PHEM buffer containing nuclear stain (DAPI, Molecular Probes, Eugene, OR, D-1306, 5 μg/mL), and finally rinsed with PHEM buffer twice before imaging.
Samples were imaged on a spinning disk confocal with Yokogawa CSUX A1 scan head, Andor iXon EMCCD camera, and 40x Plan Apo air Objective NA 0.95 or 100x ApoTIRF objective NA 1.49 (Nikon).
From the 405 nm channel, cell nuclei were identified as primary objects using maximum correlation thresholding (MCT) and shape to distinguish clumped objects. Secondary objects were outlined using propagation from the nuclei (DAPI) after applying MCT from the 488 nm, 561 nm, and 633 nm channels. Tertiary objects for each cell was identified as the mask of each nucleus subtracted from the mask of its corresponding secondary object in each channel, yielding masks for intracellular GFP-tagged protein from the 488 nm channel, for intracellular DR5 from the 561 nm channel, and for the organelle marker in the 633 nm channel. For overlap between DR5 and MPZ/RHO-GFP, Pearson’s correlation coefficients were calculated within the MPZ/RHO mask for each cell to filter out untransfected cells. For overlap between DR5/MPZ and organelle markers, Pearson’s correlation coefficients were calculated within tertiary objects for the organelle marker in GFP+ cells. Statistical analyses for all data sets were performed using GraphPad Prism 6.0.

Q: With insGFP as the compound, how does the “norm RLUs” value ([1]; dilution 0.025) read?
A: Its value is 1827.1 RLUs.

Q: And the “norm RLUs” value ([1]; dilution 0.05)?
A: Its value is 3654.19 RLUs.

Q: And the “norm RLUs” value ([1]; dilution 0.1)?
A: Its value is 8264.86 RLUs.

Q: With `CC(NC(=O)C(NC(=O)OCc1ccccc1)C(C)C)C(=O)NC(CC(=O)O)C(=O)CF` (stereo not drawn) [zVAD, reference compound] (Cbz-Val-Ala-Asp-CH2F; configuration not given here) as the compound, how does the “annexin V staining with pan-caspase inhibitor” value ([2]; cells expressing MPZ-ecto peptide) read?
A: The value was “diminished the extent of annexin V staining”.

Q: Which results are given for FTWREQPEGGRDAISIFHEA [MPZ-ecto^Tyr→Glu]?
A: co-elution / oligomerization of DR5 ECD by size exclusion [3]: did not co-migrate with or induce the oligomerization of DR5 ECD; fluorescence quenching of AlexaFluor647-DR5L ECD ([4]; increasing peptide, 200 nM ECD, N = 3): quenching was not observed

Q: For “ETEREQPEGGRDAISIEHEA [MPZ-ecto peptide^Arom→Glu-eGFP, expressed GFP-tagged construct with all aromatic residues of the MPZ-ecto peptide mutated to Glu]”, which “Annexin V +, Sytox Blue + cells” value [2] is on record?
A: Its value is 8.17% of cells.

Q: And the “Annexin V +, Sytox Blue - cells” value [2]?
A: Its value is 4.89% of cells.

Q: And the “Annexin V -, Sytox Blue - cells” value [2]?
A: The value was 86.5% of cells.

Q: And the “Pearson's correlation per cell of GFP-tagged peptide with DR5” value [5]?
A: Its value is 0.27 ± 0.03.

Q: What about the “Pearson's correlation per cell of GFP-tagged peptide with ERGIC” value [5] of the same compound?
A: The value was 0.25 ± 0.03.

Q: And the “Pearson's correlation per cell between DR5 and ERGIC” value [5]?
A: The value was 0.50 ± 0.03.

Q: How did the Kd ([4]; AlexaFluor647-DR5L ECD 200 nM, 20 mM HEPES pH 7.2, 100 mM KOAc, 0.1% Tween-20, 30 min RT, read at 25°C, N = 3, ± SD, read-out: K1/2 (half-maximum binding constant, apparent binding affinity)) turn out when FTWRYQPEGGRDAISIFHYA [MPZ-ecto] was run?
A: Its Kd is 109 ± 11 µM.

Q: “DR5 siRNA: siRNA oligonucleotides against DR5 (Dharmacon L-004448-00-0005) (guide AAGACCCUUGUGCUCGUUGUCUU; further chemistry not given here) [reference compound]” was tested. Which “PARP cleavage and annexin V staining after DR5 knockdown” value ([2]; DR5 siRNA 48 hr, then MPZ-GFP overexpression 24 hr) did it give?
A: The value was “significantly reduced PARP cleavage and annexin V staining”.

Q: What about the DR5 immunofluorescence signal ([5]; siRNA 48 hr, MPZ-GFP 24 hr) of the same compound?
A: Its DR5 immunofluorescence signal is “eliminated the DR5 signal”.

Q: What does the source list for INS1?
A: average fold change relative to empty ([1]; siDR5): 1.524 fold change; average fold change relative to empty ([1]; siNT): 2.0013 fold change

Q: “FTWREQPEGGRDAISIFHEA [MPZ-ecto peptide^Tyr→Glu-eGFP, expressed GFP-tagged construct with Tyr → Glu mutations in the MPZ-ecto peptide]” was tested. Which “Annexin V +, Sytox Blue + cells” value [2] did it give?
A: The value was 5.66% of cells.

Q: And the “Annexin V +, Sytox Blue - cells” value [2]?
A: Its value is 3.64% of cells.

Q: What about the “Annexin V -, Sytox Blue - cells” value [2] of the same compound?
A: The value was 90.3% of cells.

Q: And the “Pearson's correlation per cell of GFP-tagged peptide with DR5” value [5]?
A: Its value is 0.15 ± 0.03.

Q: What about the “Pearson's correlation per cell of GFP-tagged peptide with ERGIC” value [5] of the same compound?
A: Its value is 0.22 ± 0.05.

Q: And the “Pearson's correlation per cell between DR5 and ERGIC” value [5]?
A: The value was 0.44 ± 0.04.
